{
  "source": "patent US5476953A",
  "about": "“Biologically active amides containing a bicyclo moiety” (Cornell Research Foundation, Inc., priority 1994, dated 1995)",
  "key": {"[1]": {"system": "HCT116 human colon carcinoma cells", "experiment": "In vitro cytotoxicity, crystal violet assay, HCT116 human colon carcinoma", "assay_type": "cell-based", "conditions": "HCT-116, inhibition of cell proliferation to 50% of untreated control, 72 hours", "description": "Methanolic extract, obtained on thawing about 1 g frozen sponge by immersion in 20 ml methanol, was assessed for in vitro cytotoxicity in HCT116 human colon carcinoma cells using the crystal violet assay as described in Catino, J. J., et al, Cancer Chemothr. Pharmacol. 15: 240-243, 1985. Particularly, cells were plated at 4000 cells/well in 96 well microtiter plates and 24 hours later samples were added and serial diluted. The cells were incubated at 37° C. for 72 hours. The media was then removed and the cells fixed for 10 minutes with 3.7% formaldehyde in 1 X phosphate buffered saline. The fixing solution was removed and the cells stained with a 0.0075% crystal violet solution for 15 minutes. The cells were then allowed to dry. Rough IC50 values (IC50 being the drug concentration required to inhibit cell proliferation to 50% of that of untreated control cells), expressed as a dilution factor from a 2 mg/ml starting concentration, were determined by visual examination, compared to untreated control wells.\nCytotoxicity was assessed for pure Icadamide A and for pure Icadamide B in an HCT116 human colon carcinoma cell line by the crystal violet assay described previously. […] The IC50 is the drug concentration required to inhibit cell proliferation to 50% of that of untreated control cells."}, "[2]": {"system": "asbestos-induced pulmonary squamous cell carcinoma (ASB), ip", "experiment": "In vivo antitumor activity against ip implanted asbestos-induced pulmonary squamous cell carcinoma (ASB)", "set-up": "species or system mouse", "description": "(§1) For evaluation of antitumor activity versus the asbestos-induced pulmonary squamous cell carcinoma (ASB), CDF1 mice were implanted either intraperitoneally (ip) or subcutaneously (sc) with 0.5 ml or 0.1 ml of a 2% brei, respectively. […] Results were evaluated on the same basis as described above for M109 mouse lung tumors except that the activity criterion for tumor growth inhibition was a T-C of ≥6 days."}, "[3]": {"system": "M109 mouse lung tumor, sc", "experiment": "In vivo antitumor activity against sc implanted M109 mouse lung tumor", "conditions": "for MST % T/C: active ≥125%; for T-C: time to 1 g tumor, activity criterion approximately 4 days", "description": "(§2) For evaluation of antitumor activity versus M109 mouse lung tumors, experiments were begun by implanting 0.5 ml of a 2.0% brei ip or 0.1 ml subcutaneously (sc) in CDF1 mice as described in Rose, W. C., Cancer Treat. Rep. 65: 299-312 (1981). Icadamide B was administered either intraperitoneally (ip), intravenously (iv) or subcutaneously (sc) by alzet pump according to dosage amounts and schedule set forth in Table IV below. Results are expressed as % T/C, i.e., percentage of median survival time of treated (T) versus control (C) groups. A % T/C of ≥125% was considered an active result. Results are also expressed in terms of tumor growth inhibition, particularly the median times for tumors in treated (T) mice to reach a 1 g size minus the median times for control (C) mice to reach a 1 g size, denoted T-C. Tumor weights were interchangeable with tumor size on the basis of 1 mm^3 =1 mg. The activity criterion for T-C is approximately equal to 4 days. Depending on the tumor volume doubling time for M109 tumors in control mice, this amount of delay in tumor growth is consistent with about one log of cell kill."}, "[4]": {"system": "P388 mouse leukemia, ip", "experiment": "In vivo antitumor activity against ip implanted P388 mouse leukemia", "description": "For evaluation of antitumor activity against P388 mouse leukemia cells, 1 X 10^6 P 388 leukemia cells were implanted in the intraperitoneal (ip) cavity of (BALB/c X DBA/2)F1 (CDF1) or (C57BL/6 X DBA/2)F1 (BDF1) mice according to the procedure as described in Rose, W. C., et al, Cancer Res. 43: 1504-1510 (1983). Icadamide B was dissolved in DMSO and diluted with saline to the desired concentrations. Injection of Icadamide B was by the ip route beginning on the first day after tumor implantation and consecutively every day for five treatments (q1dX5:1). Increases in lifespan were reflected by the median survival time of treated (T) versus control (C) groups for which a % T/C was calculated. A % T/C of ≥125% was considered an active result."}, "[5]": {"system": "asbestos-induced pulmonary squamous cell carcinoma (ASB), sc", "experiment": "In vivo antitumor activity against sc implanted asbestos-induced pulmonary squamous cell carcinoma (ASB)", "set-up": "species or system mouse", "description": "as §1"}, "[6]": {"system": "M109 mouse lung tumor, ip", "experiment": "In vivo antitumor activity against ip implanted M109 mouse lung tumor", "conditions": "for MST % T/C: qd 1-5, ip, active ≥125%", "description": "as §2"}, "[7]": {"conditions": "a) 0.020 mg/kg/inj, d. 1, 4 & 7, iv"}, "[8]": {"conditions": "b) 0.128 mg/kg/inj, d. 1, 3, 5, 7 & 9, iv"}, "[9]": {"conditions": "e) 0.032-0.0537 mg/kg daily, qd 4-10, subcutaneously implanted Alzet pump (scap)"}},
  "note": "Where “and” joins values, the source holds several entries; their conditions need not be identical. Equal entries are not always repeated.",
  "data": [
    {"smiles": "C=C1CC(OC)(C(O)C(=O)NC2OCOC3C2OC(CC(O)/C=C/C/C=C/C=C/C(=O)NC(CCCNC(=N)N)C(=O)O)C(C)(C)C3OC)OC(C)C1C", "note": "(centres unmarked) [Icadamide A]", "values": [
      {"measurement": "IC50", "setting": "[1]", "value": 0.063, "unit": "µM"}
    ]},
    {"smiles": "C=C1CC(OC)(C(O)C(=O)NC2OCOC3C2OC(CC(O)/C=C/CCCCCCO)C(C)(C)C3OC)OC(C)C1C", "note": "(centres unmarked) [Icadamide B]", "values": [
      {"measurement": "MST % T/C", "setting": "[2]; 0.008 mg/kg/inj, qd 4-8, ip, active ≥125%", "value": 121, "unit": "%"},
      {"measurement": "activity (in words)", "setting": "[2]; ip implanted ASB", "value": "poor activity"},
      {"measurement": "MST % T/C", "setting": "[3]; [7]", "value": 135, "unit": "%"},
      {"measurement": "T-C", "setting": "[3]; [7]", "value": -0.3, "unit": "days"},
      {"measurement": "MST % T/C", "setting": "[3]; [8]", "value": 97, "unit": "%"},
      {"measurement": "T-C", "setting": "[3]; [8]", "value": 0, "unit": "days"},
      {"measurement": "MST % T/C", "setting": "[3]; c) 0.016 mg/kg/inj, qd 4-8, iv", "value": 119, "unit": "%"},
      {"measurement": "T-C", "setting": "[3]; c) 0.016 mg/kg/inj, qd 4-8, iv", "value": 0.3, "unit": "days"},
      {"measurement": "MST % T/C", "setting": "[3]; d) 0.013 mg/kg/inj, qd 4-8, ip", "value": 109, "unit": "%"},
      {"measurement": "T-C", "setting": "[3]; d) 0.013 mg/kg/inj, qd 4-8, ip", "value": 2.5, "unit": "days"},
      {"measurement": "MST % T/C", "setting": "[3]; [9]", "value": 102, "unit": "%"},
      {"measurement": "T-C", "setting": "[3]; [9]", "value": 3.3, "unit": "days"},
      {"measurement": "increase in lifespan (in words)", "setting": "[3]; sc implanted M109", "value": "marginal increases in lifespan"},
      {"measurement": "tumor growth delay (in words)", "setting": "[3]; sc implanted M109", "value": "negligible tumor growth delays"},
      {"measurement": "MST % T/C", "setting": "[4]; 0.016 mg/kg/inj, qd 1-5, ip; two separate experiments a) and b), active ≥125%", "value": "181% and 143%"},
      {"measurement": "activity (in words)", "setting": "[4]; ip implanted P388", "value": "good activity"},
      {"measurement": "increase in lifespan", "setting": "[4]; maximally tolerated dose, ip, two separate experiments", "value": "43% and 81%"},
      {"measurement": "MST % T/C", "setting": "[5]; 0.032/0.128 mg/kg/inj, qd 4-8, iv, active ≥125%", "value": 129, "unit": "%"},
      {"measurement": "T-C", "setting": "[5]; 0.032/0.128 mg/kg/inj, qd 4-8, iv, time to 1 g tumor, activity criterion ≥6 days", "value": "3.0 days and 3 days"},
      {"measurement": "distal site activity (in words)", "setting": "[5]; sc implanted ASB", "value": "little distal site activity"},
      {"measurement": "MST % T/C", "setting": "[6]; a) 0.016 mg/kg/inj", "value": 163, "unit": "%"},
      {"measurement": "MST % T/C", "setting": "[6]; b) 0.008 mg/kg/inj", "value": 150, "unit": "%"},
      {"measurement": "activity (in words)", "setting": "[6]; ip implanted M109", "value": "good activity"},
      {"measurement": "increase in lifespan", "setting": "[6]; maximally tolerated doses, ip", "value": "63% and 50%"},
      {"measurement": "IC50", "setting": "[1]", "value": 0.00017, "unit": "µM"}
    ]}
  ]
}
